Results taken from the supplement of paper PMC10307832.

Legend:
Test in all cases: relative viability (nuclei count vs DMSO), 5 days (fraction); higher = more cells survive
[1] = compound: CC1(COc2ccc3c(c2)ncn3-c2ccc3cccc(N4CCC(N)CC4)c3n2)COC1 [Crenolanib] + O=C(CCCCCCC(=O)Nc1ccccc1)NO [Vorinostat] (partner 1 µM)
Outline: (§1)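 Values are medians from duplicate plates. Each reflects relative viability, defined as the nuclei count of treated wells over that of vehicle wells. Lung cancer cell lines in 1536-well plates were pin-tool dosed one day after seeding with one drug alone or with a fixed anchor-drug dose plus five library-drug doses (not always all listed) in √10 steps, then fixed, stained and imaged at 4× after 5 days.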

[2] = compound: O=C1NC(=O)[C@@H](c2cn3c4c(cccc24)CCC3)[C@@H]1c1c[nH]c2ccccc12 [Tivantinib] + CS(=O)(=O)CCNCc1ccc(-c2ccc3ncnc(Nc4ccc(OCc5cccc(F)c5)c(Cl)c4)c3c2)o1 [Lapatinib] (partner 2 µM)
Outline: as §1

[3] = compound: CC1(COc2ccc3c(c2)ncn3-c2ccc3cccc(N4CCC(N)CC4)c3n2)COC1 [Crenolanib] + Nc1ncn([C@H]2C[C@H](O)[C@@H](CO)O2)c(=O)n1 [Decitabine] (partner 2 µM)
Outline: as §1

[4] = compound: O=C1NC(=O)[C@@H](c2cn3c4c(cccc24)CCC3)[C@@H]1c1c[nH]c2ccccc12 [Tivantinib] + Cc1nc(NC(=O)N2CCC[C@H]2C(N)=O)sc1-c1ccnc(C(C)(C)C(F)(F)F)c1 [Alpelisib] (partner 2 µM)
Outline: as §1

Cell Line | relative viability ([1]; first compound 0.01 µM) | relative viability ([1]; first compound 0.03162 µM) | relative viability ([1]; first compound 0.1 µM) | relative viability ([1]; first compound 0.3162 µM) | relative viability ([1]; first compound 1 µM) | relative viability ([2]; first compound 0.01 µM) | relative viability ([2]; first compound 0.03162 µM) | relative viability ([2]; first compound 0.1 µM) | relative viability ([2]; first compound 0.3162 µM) | relative viability ([3]; first compound 0.01 µM) | relative viability ([3]; first compound 0.03162 µM) | relative viability ([3]; first compound 0.1 µM) | relative viability ([3]; first compound 0.3162 µM) | relative viability ([3]; first compound 1 µM) | relative viability ([4]; first compound 0.01 µM) | relative viability ([4]; first compound 0.03162 µM) | relative viability ([4]; first compound 0.1 µM) | relative viability ([4]; first compound 0.3162 µM)
201T | 0.985 | 1 | 0.929 | 0.955 | 0.983 | 1.08 | 1.01 | 1.04 | 1.14 | 0.863 | 0.839 | 0.822 | 0.884 | 0.843 | 0.982 | 1 | 0.999 | 0.981
A549 | – | – | – | – | – | 1 | 1.02 | 0.911 | 0.935 | 0.208 | 0.258 | 0.282 | 0.221 | 0.293 | 0.769 | 0.818 | 0.708 | 0.79
A-427 | 0.848 | – | 0.848 | 0.946 | 0.83 | 1 | 1.12 | 0.989 | 1.12 | 0.573 | – | 0.592 | 0.553 | 0.52 | 1.12 | 1.12 | 1.1 | 0.973
ABC-1 | 0.991 | 0.679 | 1.13 | 1.17 | 0.934 | – | 1.13 | 1.17 | 0.869 | 1.42 | 1.22 | 0.978 | 1.17 | 1.15 | 0.984 | 0.995 | 0.742 | 0.825
BEN | 0.569 | 0.516 | 0.581 | 0.595 | 0.555 | 0.623 | 0.617 | 0.591 | 0.691 | 0.768 | 0.72 | 0.76 | 0.612 | 0.749 | 1.02 | 0.837 | 0.893 | 0.735
CAL-12T | 0.781 | 0.67 | 0.631 | 0.966 | 0.66 | 0.723 | 0.62 | 0.644 | 0.424 | – | – | – | – | – | 1.19 | 1.32 | 1.09 | 0.8
COR-L23 | 0.553 | 0.559 | 0.394 | 0.5 | 0.476 | 1.12 | 0.975 | 0.894 | 0.922 | 0.326 | 0.473 | 0.431 | 0.487 | 0.413 | 0.864 | 0.754 | 0.671 | 0.905
COR-L 105 | 0.842 | 0.957 | 0.904 | 1.08 | 0.922 | 0.412 | 0.359 | 0.29 | 0.359 | 0.684 | 0.669 | 0.698 | 0.682 | 0.675 | 1 | 0.921 | 0.783 | 0.95
Calu-6 | – | – | – | – | – | 1.08 | 1.02 | 1.02 | 0.965 | – | – | – | – | – | 0.987 | 1.03 | 1.02 | 0.955
ChaGo-K-1 | 0.721 | 0.81 | 0.724 | 0.745 | 0.793 | – | – | – | – | 0.56 | 0.489 | 0.533 | 0.513 | 0.556 | – | – | – | –
EBC-1 | – | – | – | – | – | 0.205 | 0.248 | 0.194 | 0.201 | – | – | – | – | – | 0.948 | 0.865 | 0.841 | 0.719
EKVX | 0.928 | 0.752 | 0.722 | 0.888 | 0.654 | 0.194 | 0.225 | 0.225 | 0.176 | 0.377 | 0.318 | 0.392 | 0.319 | 0.38 | 0.912 | 0.785 | 0.888 | 0.239
EMC-BAC-2 | 0.47 | – | 0.485 | 0.447 | 0.303 | 1 | 0.852 | 0.867 | 0.881 | 1.07 | – | 0.957 | 1.11 | 0.963 | 0.792 | 0.718 | 0.705 | 0.656
EPLC-272H | 0.435 | 0.622 | 0.469 | 0.308 | 0.584 | 1.08 | 0.711 | 0.846 | 0.383 | 0.455 | 0.391 | 0.339 | 0.391 | 0.358 | 0.975 | 0.922 | 0.836 | 0.672
H3255 | 0.811 | 0.744 | 0.838 | 0.853 | 0.726 | 0.275 | 0.234 | 0.294 | – | 0.674 | 0.629 | 0.588 | 0.587 | 0.652 | 0.659 | 0.679 | 0.75 | –
HARA | 0.568 | 0.499 | 0.532 | 0.626 | 0.502 | 0.888 | 0.651 | 0.636 | 0.82 | 0.67 | 0.543 | 0.447 | 0.586 | 0.569 | 0.962 | 0.737 | 0.827 | 0.431
HCC-15 | 0.954 | 0.888 | 0.844 | 0.877 | 0.775 | 0.815 | 0.846 | 0.873 | 0.829 | 0.625 | 0.621 | 0.603 | 0.689 | 0.65 | 0.942 | 0.832 | 0.799 | 0.996
HCC-44 | 1.06 | 1.05 | 1.19 | 1.06 | 1.05 | 1.02 | 1.04 | 0.998 | 1 | 0.933 | 0.925 | 0.944 | 0.972 | 0.845 | 0.844 | 0.703 | 0.858 | 0.793
HCC-78 | 0.441 | 0.424 | 0.493 | 0.433 | 0.386 | 0.477 | 0.786 | 0.647 | 0.456 | 0.673 | 0.634 | 0.734 | 0.838 | 0.652 | 0.412 | 0.306 | 0.34 | 0.204

Cell Line | relative viability ([1]; first compound 0.01 µM) | relative viability ([1]; first compound 0.03162 µM) | relative viability ([1]; first compound 0.1 µM) | relative viability ([1]; first compound 0.3162 µM) | relative viability ([1]; first compound 1 µM) | relative viability ([2]; first compound 0.01 µM) | relative viability ([2]; first compound 0.03162 µM) | relative viability ([2]; first compound 0.1 µM) | relative viability ([2]; first compound 0.3162 µM) | relative viability ([3]; first compound 0.01 µM) | relative viability ([3]; first compound 0.03162 µM) | relative viability ([3]; first compound 0.1 µM) | relative viability ([3]; first compound 0.3162 µM) | relative viability ([3]; first compound 1 µM) | relative viability ([4]; first compound 0.01 µM) | relative viability ([4]; first compound 0.03162 µM) | relative viability ([4]; first compound 0.1 µM) | relative viability ([4]; first compound 0.3162 µM)
HCC-366 | 0.377 | 0.357 | 0.335 | 0.426 | 0.216 | 0.89 | 1.03 | 0.99 | 1.03 | 0.33 | 0.325 | 0.329 | 0.374 | 0.334 | 0.432 | 0.35 | 0.421 | 0.419
HCC-827 | 0.985 | 0.837 | 0.809 | 0.7 | 0.753 | 0.213 | 0.211 | 0.176 | 0.165 | 0.332 | 0.329 | 0.311 | 0.308 | 0.348 | 1.04 | 1.03 | 0.922 | 0.719
HOP-62 | 0.653 | 0.542 | 0.635 | 0.829 | 0.552 | 1.15 | – | 0.956 | 1.16 | 0.222 | 0.19 | 0.29 | 0.205 | 0.234 | 1.04 | – | 0.648 | 0.923
IA-LM | 1.06 | 0.971 | 0.956 | 0.905 | 0.678 | 0.871 | 0.882 | 0.669 | 0.771 | – | – | – | – | – | 0.878 | 0.653 | 0.853 | 0.815
LC-2-ad | 0.726 | 0.674 | 0.67 | 0.736 | 0.679 | 1.03 | 0.929 | 0.928 | 1.06 | 0.833 | 0.844 | 0.759 | 0.818 | 0.78 | 0.889 | 0.93 | 0.847 | 0.904
LCLC-97TM1 | 0.822 | 0.83 | 0.792 | 0.832 | 0.536 | 1.04 | 0.852 | 1.04 | 0.889 | 0.203 | 0.221 | 0.193 | 0.226 | 0.208 | 0.237 | 0.215 | 0.2 | 0.198
LCLC-103H | 0.752 | 0.791 | 0.754 | 0.811 | 0.746 | – | – | – | – | 0.752 | 0.709 | 0.692 | 0.769 | 0.72 | 0.905 | 0.938 | 0.839 | 0.86
NCI-H441 | 0.98 | 0.705 | 0.657 | 1 | 0.832 | – | – | – | – | 0.259 | 0.276 | 0.277 | 0.251 | 0.243 | 0.736 | 0.648 | – | 0.76
NCI-H522 | 1 | 0.876 | 0.855 | 0.92 | 0.8 | – | – | – | – | 0.668 | 0.63 | 0.665 | 0.64 | 0.607 | – | – | – | –
NCI-H1299 | – | – | – | – | – | 0.967 | 0.952 | 0.988 | 0.924 | – | – | – | – | – | 1.09 | 1.01 | 1.01 | 1.02
NCI-H1563 | – | – | – | – | – | 1.05 | 0.894 | 0.831 | 0.908 | – | – | – | – | – | 1.04 | 0.89 | 0.932 | 1.06
NCI-H1648 | 0.599 | – | 0.293 | 0.466 | 0.433 | – | – | – | – | 0.521 | – | 0.477 | 0.467 | 0.59 | – | – | – | –
NCI-H1650 | 0.454 | 0.516 | 0.582 | 0.812 | 0.676 | 0.879 | 0.547 | 0.702 | 0.861 | 0.373 | 0.377 | 0.455 | 0.322 | 0.343 | – | – | – | –
NCI-H1703 | – | – | – | – | – | 1.3 | 0.94 | 1.06 | 1.06 | – | – | – | – | – | 0.499 | 0.329 | 0.256 | 0.334
NCI-H1792 | – | – | – | – | – | 0.91 | 0.939 | 0.822 | 0.964 | 0.567 | 0.555 | 0.488 | 0.569 | 0.56 | 0.804 | 0.633 | 0.699 | 0.415
NCI-H2228 | 0.721 | 0.768 | 0.633 | 0.687 | 0.871 | 1.12 | 1.08 | 1.07 | 0.676 | – | – | – | – | – | 0.842 | 0.644 | 0.618 | 0.695
NCI-H2342 | 0.729 | 0.682 | 0.688 | 0.788 | 0.691 | – | – | – | – | 0.766 | 0.649 | 0.742 | 0.903 | 0.694 | – | – | – | –
SW 900 | 0.548 | – | 0.428 | 0.574 | 0.435 | – | – | – | – | 0.48 | – | 0.507 | 0.517 | 0.407 | – | – | – | –
